The values that follow come from ChEMBL document CHEMBL5727633, “Therapeutic compounds” (2020).

For one assay, the target named is CREB-binding protein (Homo sapiens, UniProt Q92793). In words: In Vitro CBP Inhibition: The CBP-inhibitory activity of the compounds described herein was determined by calculating the IC50. More specifically, CBP inhibitor activity was assayed as follows: CBP was cloned and expressed in E. coli as His-tag protein and purified by Nickel affinity and gel-filtration chromatography. […] CBP binding and inhibition is assessed by monitoring the interaction of biotinylated H4-tetraacetyl peptide (AnaSpec, H4K5/8/12/16(Ac), biotin-labeled) with the target using the AlphaScreen technology (Perkin Elmer). In a 384-well ProxiPlate CBP (50 nM final) was combined with peptide (20 nM final) in 50 mM HEPES (pH 7.3), 10 mM NaCl, 0.25 mM TCEP, 0.1% (w/v) BSA, and 0.005% (w/v) Brij-35 either in the presence of DMSO (final 0.4% DMSO) or compound dilution series in DMSO. After 20 min incubation at room temp, Alpha-streptavidin donor beads and Nickel Chelate acceptor beads were added to a final concentration of 5 μg/mL.

In assay [1] the target is Bromodomain-containing protein 4 (Homo sapiens, UniProt O60885). In words: In Vitro Enzyme Inhibition Assay-BRD4 Inhibition: Inhibition of BRD4 was determined as described previously. See, e.g., U.S. Pat. No. 9,034,900.

Sequence of CREB-binding protein (Q92793 whole entry): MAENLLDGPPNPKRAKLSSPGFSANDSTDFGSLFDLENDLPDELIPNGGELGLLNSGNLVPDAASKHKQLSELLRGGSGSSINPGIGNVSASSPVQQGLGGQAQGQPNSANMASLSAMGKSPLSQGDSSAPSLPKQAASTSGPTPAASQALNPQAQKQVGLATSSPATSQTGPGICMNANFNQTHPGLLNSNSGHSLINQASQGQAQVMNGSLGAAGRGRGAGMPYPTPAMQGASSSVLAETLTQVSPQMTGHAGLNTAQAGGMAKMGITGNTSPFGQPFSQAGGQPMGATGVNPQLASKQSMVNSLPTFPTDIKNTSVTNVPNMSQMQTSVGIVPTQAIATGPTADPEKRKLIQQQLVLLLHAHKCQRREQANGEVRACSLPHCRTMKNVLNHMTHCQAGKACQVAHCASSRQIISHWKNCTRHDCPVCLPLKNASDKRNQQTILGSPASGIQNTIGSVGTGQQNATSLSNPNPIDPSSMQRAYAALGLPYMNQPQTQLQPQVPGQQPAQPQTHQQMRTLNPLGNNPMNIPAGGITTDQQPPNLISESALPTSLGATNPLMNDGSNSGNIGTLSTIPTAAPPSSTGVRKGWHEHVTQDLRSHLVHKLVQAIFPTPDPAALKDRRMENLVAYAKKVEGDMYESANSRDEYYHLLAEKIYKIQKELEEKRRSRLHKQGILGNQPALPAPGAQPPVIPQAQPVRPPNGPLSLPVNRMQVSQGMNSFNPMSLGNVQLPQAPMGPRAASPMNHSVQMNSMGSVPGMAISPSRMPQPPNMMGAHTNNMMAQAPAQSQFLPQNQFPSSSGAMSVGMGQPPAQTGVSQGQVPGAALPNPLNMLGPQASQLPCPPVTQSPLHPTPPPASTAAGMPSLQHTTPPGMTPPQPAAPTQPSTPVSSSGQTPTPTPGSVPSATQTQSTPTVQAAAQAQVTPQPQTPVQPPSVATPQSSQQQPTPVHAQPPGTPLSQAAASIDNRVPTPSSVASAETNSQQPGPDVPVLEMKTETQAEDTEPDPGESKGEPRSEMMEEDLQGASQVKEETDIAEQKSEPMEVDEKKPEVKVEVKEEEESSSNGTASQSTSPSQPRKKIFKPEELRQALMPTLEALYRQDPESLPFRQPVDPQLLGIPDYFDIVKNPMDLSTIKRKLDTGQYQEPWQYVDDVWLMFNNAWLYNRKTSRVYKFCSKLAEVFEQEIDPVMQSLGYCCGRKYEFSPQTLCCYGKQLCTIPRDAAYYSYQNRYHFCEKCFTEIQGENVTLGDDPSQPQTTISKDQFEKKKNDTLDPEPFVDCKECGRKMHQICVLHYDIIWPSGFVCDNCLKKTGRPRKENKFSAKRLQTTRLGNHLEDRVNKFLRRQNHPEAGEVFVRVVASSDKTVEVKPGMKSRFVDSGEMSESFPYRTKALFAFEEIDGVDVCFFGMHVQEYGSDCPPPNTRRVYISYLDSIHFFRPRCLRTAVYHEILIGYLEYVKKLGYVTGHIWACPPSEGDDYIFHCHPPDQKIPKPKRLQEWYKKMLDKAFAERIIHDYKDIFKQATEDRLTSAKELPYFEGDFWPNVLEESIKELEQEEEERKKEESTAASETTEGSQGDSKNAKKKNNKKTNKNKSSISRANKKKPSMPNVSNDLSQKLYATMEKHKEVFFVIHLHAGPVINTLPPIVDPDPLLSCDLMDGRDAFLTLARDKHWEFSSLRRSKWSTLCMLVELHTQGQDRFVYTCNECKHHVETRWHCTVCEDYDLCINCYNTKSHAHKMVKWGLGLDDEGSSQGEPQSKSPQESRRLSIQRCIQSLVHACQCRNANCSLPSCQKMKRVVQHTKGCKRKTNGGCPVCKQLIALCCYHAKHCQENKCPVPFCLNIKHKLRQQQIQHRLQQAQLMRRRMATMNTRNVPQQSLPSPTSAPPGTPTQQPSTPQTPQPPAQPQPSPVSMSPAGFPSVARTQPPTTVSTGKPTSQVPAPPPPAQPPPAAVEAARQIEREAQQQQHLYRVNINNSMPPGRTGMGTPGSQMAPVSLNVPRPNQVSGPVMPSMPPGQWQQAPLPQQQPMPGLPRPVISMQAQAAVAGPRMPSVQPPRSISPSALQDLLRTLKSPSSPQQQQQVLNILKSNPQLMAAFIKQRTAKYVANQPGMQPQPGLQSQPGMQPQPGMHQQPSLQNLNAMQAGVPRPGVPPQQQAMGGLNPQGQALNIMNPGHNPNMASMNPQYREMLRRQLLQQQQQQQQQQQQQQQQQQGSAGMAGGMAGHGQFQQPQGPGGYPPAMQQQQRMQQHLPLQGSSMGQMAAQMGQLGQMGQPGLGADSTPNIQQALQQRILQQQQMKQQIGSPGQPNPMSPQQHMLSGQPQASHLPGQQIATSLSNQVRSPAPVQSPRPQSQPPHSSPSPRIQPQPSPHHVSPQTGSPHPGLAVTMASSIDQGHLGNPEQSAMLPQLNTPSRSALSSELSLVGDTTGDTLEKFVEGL

As a reminder, the IC50 is the midpoint of a concentration-inhibition curve. Regarding `CCOc1cc(=O)n(C)cc1-c1cnn(C(C)c2cccc(-c3cnn(C)c3)c2)c1` (configuration not stated), the IC50 on CREB-binding protein was < 500 nM.

As to `Cn1ccc(-c2cc(=O)n(C)cc2-c2cnn(-c3cccc(F)c3C#N)c2)cc1=O`, at CREB-binding protein, the IC50 was < 500 nM.

Take `Cn1cc(-c2cnn(-c3ccccc3-c3nnn[nH]3)c2)c(-c2ccc(F)cc2)cc1=O`: the IC50 on CREB-binding protein is < 500 nM.

Turning to `Cn1cc(-c2cnn(Cc3ccccc3)c2)c(-c2cccc(Cl)c2)cc1=O`, the IC50 on CREB-binding protein is < 500 nM.

For the compound `COc1ccc(-c2cc(=O)n(C)cc2-c2cnn(-c3ccccc3C#N)c2)cc1`, on CREB-binding protein, the IC50 is < 500 nM.

Regarding `COc1cc(-c2cc(=O)n(C)cc2-c2cnn(-c3ccccc3C(=O)NC#N)c2)ccn1`, the 50% inhibitory concentration (IC50) at CREB-binding protein was < 500 nM.

As to `COc1ccc(C(=O)O)c(-n2cc(-c3cn(C)c(=O)cc3-c3ccc(Cl)cc3)cn2)c1`, on CREB-binding protein, the IC50 was < 500 nM.

With `Cn1cc(-c2cnn(CC3CC3)c2)c(-c2ccc(C(=O)O)cc2)cc1=O`, the IC50 in assay [1] was > 5000 nM; at CREB-binding protein, < 500 nM.

Consider `COc1ccc(-c2cc(=O)n(C)cc2-c2cnn(-c3ccccc3C(=O)NC#N)c2)cn1`, for which the IC50 on CREB-binding protein is < 500 nM.

In the case of `Cc1cc(-c2cnn(C(c3ccccc3)C3CC3)c2)cn(C)c1=O` (configuration not stated), the 50% inhibitory concentration (IC50) on CREB-binding protein is < 500 nM.

`Cn1cc(-c2cnn(Cc3ccccc3)c2)c(-c2cnn(CC(=O)O)c2)cc1=O`: the IC50 on CREB-binding protein is < 500 nM.

As for `Cn1cc(-c2cnn(CC3CC3)c2)c(-c2ccc(C(F)(F)F)cc2)cc1=O`, the IC50 on CREB-binding protein is < 500 nM.

For `Cn1cc(-c2cnn(-c3ccccc3C(=O)O)c2)c(-c2ccc(Cl)cc2)cc1=O`, the IC50 at CREB-binding protein is < 500 nM.

As to `Cn1cc(-c2cnn(CC3CCCCC3)c2)c(-c2ccccc2)cc1=O`, the IC50 on CREB-binding protein was < 500 nM.

For the compound `COc1ccc(C#N)c(-n2cc(-c3cn(C)c(=O)cc3-c3ccc(Cl)cc3)cn2)c1`, on CREB-binding protein, the IC50 was < 500 nM.

Turning to `CNC(=O)Cn1cc(-c2cn(C)c(=O)cc2-c2ccccc2)cn1`, the IC50 at CREB-binding protein was < 500 nM.

With `CNC(=O)c1ccc(-c2cc(=O)n(C)cc2-c2cnn(CC3CC3)c2)cc1`, the IC50 on CREB-binding protein was < 500 nM.

Take `COc1ccc(-c2cc(=O)n(C)cc2-c2cnn(-c3ccccc3C(=O)O)c2)cc1`: at CREB-binding protein, the IC50 is < 500 nM.

For `Cn1cc(-c2cnn(Cc3ccccc3)c2)c(-c2ccc(Cl)cc2)cc1=O`, the IC50 on CREB-binding protein is < 500 nM.

Regarding `COc1ccccc1-c1cc(=O)n(C)cc1-c1cnn(Cc2ccccc2)c1`, on CREB-binding protein, the IC50 was > 5000 nM.

`Cn1cc(COc2cc(=O)n(C)cc2-c2cnn(-c3ccccc3Cl)c2)cn1`: the IC50 on CREB-binding protein is < 500 nM.
